We go through one substance from US11475578B2, “Method for analyzing behavior of cell, and use thereof” (TEIKYO UNIVERSITY, priority 2018, dated 2022).

The subject of assay [1] is epidermal keratinocytes. Description: Monitoring of culture conditions by automatic cell tracking of epidermal keratinocyte colonies. In kind it is cell-based, human. The settings on record: 10 ng/ml EGF added to the medium. As for the experimental part:
Human epidermal keratinocytes originating in neonate (purchased from KURABO) were cultured under the conditions of 37° C. and 10% CO2 using the mouse 3T3 fibroblasts treated with mitomycin C as feeder cells (refer to the reference for details of the method).
The cultured epidermal keratinocytes were subcultured on a 35-mm glass bottom dish, and time-lapse imaging was performed under the conditions of 37° C. and 10% CO2 in which imaging was automatically performed every 5 minutes with Olympus FV10i.
The automatic tracking system was applied to monitoring of culture conditions of epidermal keratinocytes (obtained and cultured in the same manner as that of Example 1-1).
Behaviors of epidermal keratinocytes under different culture conditions were compared in the same manner as that of Example 1-2. The cell locomotions were compared. Those of the case where the medium was exchanged on the day 4 of the culture (feeding) and the case where the medium was not exchanged (no feeding) were compared. […] In the lower diagrams of FIG. 14, positions of the nuclei at each time point are shown with lines.
In the culture system of the inventors of the present invention, epidermal keratinocytes show a spiral migration pattern in colonies. As clearly seen from FIG. 15, the trajectory lines in 2D images (upper side) and 3D images (lower side) twisted. […]

In assay [2] the test system is epidermal keratinocytes. Conditions: as previously reported [7]; cited from earlier work.

Turning to “epidermal growth factor [EGF, epidermal growth factor (EGF) (Up state, #01-107) added to the culture medium]”, in the assay with epidermal keratinocytes [1], the migration speed result is “did not change”. Further, in the assay on epidermal keratinocytes [1] (without EGF, spiral migration pattern in colonies), the migration pattern result is given as “changed”. Further, the “migration of epidermal keratinocytes” value with epidermal keratinocytes [2] was “induces migration of epidermal keratinocytes to the outside”.
